Assay [1] has as its target T1, Tyrosine-protein phosphatase non-receptor type 1 (Homo sapiens) (UniProt P18031).
T1 sequence (whole entry): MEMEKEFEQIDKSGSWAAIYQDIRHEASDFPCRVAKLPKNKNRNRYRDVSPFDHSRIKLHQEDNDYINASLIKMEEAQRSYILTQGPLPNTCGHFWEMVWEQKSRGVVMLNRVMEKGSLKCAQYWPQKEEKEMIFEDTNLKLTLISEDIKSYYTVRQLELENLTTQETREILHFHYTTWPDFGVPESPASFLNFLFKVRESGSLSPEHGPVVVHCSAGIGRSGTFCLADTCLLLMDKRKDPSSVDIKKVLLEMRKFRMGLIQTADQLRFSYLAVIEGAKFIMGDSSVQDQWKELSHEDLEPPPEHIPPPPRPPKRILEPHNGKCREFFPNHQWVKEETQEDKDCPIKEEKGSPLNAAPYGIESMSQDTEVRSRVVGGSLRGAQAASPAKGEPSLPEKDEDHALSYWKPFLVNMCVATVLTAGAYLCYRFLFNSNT
Nature of the assay: The rate constant for the inactivation of mammalian Protein-tyrosine phosphatase 1 (PTP1 ) was evaluated.

The target in assay [2] is T1, Tyrosine-protein phosphatase non-receptor type 1 (Homo sapiens). In words: Apparent pseudo-first-order rate constant of inactivation of Protein Tyrosine Phosphatase (PTP) was determined; value given as 0.5-2.8.
Assay [3] has the same target. Nature of the assay: Apparent pseudo-first-order rate constant of inactivation of Protein Tyrosine Phosphatase (PTP) was determined; value given as 1-25.

Data on two molecules can be found in ChEMBL document CHEMBL1128883, “Synthesis and bioassay of a protein tyrosine phosphatase inhibitor, dephostatin” (Bioorg Med Chem Lett, 1995).

For the molecule `CN(N=O)c1cc(O)ccc1O`, the Rate constant was determined as 1.08 M⁻¹ s⁻¹ in assay [1] and 0.5 mM in assay [2].

As to `CN(N=O)c1ccccc1`, the Rate constant came to 0.0167 M⁻¹ s⁻¹ in assay [1] and 1 mM in assay [3].
